Data taken from the CheMixHub viscosity set.
± gives the uncertainty stated by the source.

Experiment: xn = mol fraction of the nth substance listed

c1ccccc1 + CC(C)O
viscosity [mPa·s], 101 kPa
Conditions | x1 = 0.0575 | x1 = 0.144 | x1 = 0.225 | x1 = 0.362 | x1 = 0.558 | x1 = 0.651 | x1 = 0.732 | x1 = 0.798 | x1 = 0.886
298.15 K | 1.733 ± 0.019 | 1.369 ± 0.015 | 1.139 ± 0.012 | 0.89 ± 0.01 | 0.69 ± 0.007 | 0.639 ± 0.007 | 0.614 ± 0.006 | 0.607 ± 0.006 | 0.602 ± 0.006
303.15 K | 1.512 ± 0.016 | 1.206 ± 0.013 | 1.015 ± 0.011 | 0.8 ± 0.008 | 0.643 ± 0.007 | 0.593 ± 0.006 | 0.572 ± 0.006 | 0.565 ± 0.006 | 0.561 ± 0.006
308.15 K | 1.325 ± 0.014 | 1.068 ± 0.011 | 0.905 ± 0.01 | 0.73 ± 0.008 | 0.592 ± 0.006 | 0.551 ± 0.006 | 0.531 ± 0.006 | 0.527 ± 0.006 | 0.524 ± 0.006
313.15 K | 1.16 ± 0.012 | 0.948 ± 0.01 | 0.814 ± 0.009 | 0.668 ± 0.007 | 0.556 ± 0.006 | 0.511 ± 0.005 | 0.497 ± 0.005 | 0.493 ± 0.005 | 0.493 ± 0.005
318.15 K | 1.026 ± 0.011 | 0.852 ± 0.009 | 0.732 ± 0.008 | 0.616 ± 0.006 | 0.518 ± 0.006 | 0.475 ± 0.005 | 0.465 ± 0.005 | 0.463 ± 0.005 | 0.461 ± 0.005

CCCCCCCCCCCCCC + Cc1ccccc1
viscosity [mPa·s], 101 kPa
Conditions | x1 = 0.1106 | x1 = 0.1996 | x1 = 0.2947 | x1 = 0.3965 | x1 = 0.5013 | x1 = 0.5988 | x1 = 0.7002 | x1 = 0.7982 | x1 = 0.8995
298.15 K | 0.697 ± 0.047 | 0.803 ± 0.053 | 0.909 ± 0.059 | 1.038 ± 0.066 | 1.168 ± 0.073 | 1.318 ± 0.082 | 1.468 ± 0.09 | 1.664 ± 0.1 | 1.86 ± 0.11
303.15 K | 0.654 ± 0.045 | 0.748 ± 0.05 | 0.842 ± 0.055 | 0.962 ± 0.062 | 1.081 ± 0.068 | 1.211 ± 0.076 | 1.341 ± 0.083 | 1.513 ± 0.092 | 1.685 ± 0.1
308.15 K | 0.613 ± 0.042 | 0.699 ± 0.047 | 0.786 ± 0.052 | 0.894 ± 0.058 | 1.002 ± 0.064 | 1.115 ± 0.07 | 1.228 ± 0.077 | 1.384 ± 0.085 | 1.54 ± 0.094

CC(C)CCl + CCC(C)O
viscosity [mPa·s], 101.33 kPa
Conditions | x1 = 0.1077 | x1 = 0.2064 | x1 = 0.3079 | x1 = 0.4066 | x1 = 0.5036 | x1 = 0.648 | x1 = 0.7018 | x1 = 0.805 | x1 = 0.8972
298.15 K | 1.946 ± 0.018 | 1.381 ± 0.013 | 1.046 ± 0.011 | 0.8335 ± 0.0091 | 0.7002 ± 0.008 | 0.5685 ± 0.0069 | 0.5343 ± 0.0066 | 0.4815 ± 0.0062 | 0.4478 ± 0.006
313.15 K | 1.254 ± 0.012 | 0.9644 ± 0.0097 | 0.7565 ± 0.0081 | 0.6299 ± 0.0071 | 0.5461 ± 0.0064 | 0.4591 ± 0.0058 | 0.4357 ± 0.0056 | 0.4015 ± 0.0054 | 0.3778 ± 0.0052

ClC(Cl)=C(Cl)Cl + c1ccncc1
298.15 K, 101 kPa
Conditions | viscosity [mPa·s]
x1 = 0.0296 | 0.8879 ± 0.0075
x1 = 0.1254 | 0.8794 ± 0.0075
x1 = 0.1862 | 0.875 ± 0.0074
x1 = 0.2246 | 0.8719 ± 0.0074
x1 = 0.2887 | 0.8657 ± 0.0073
x1 = 0.4448 | 0.8496 ± 0.0072
x1 = 0.5638 | 0.8411 ± 0.0071
x1 = 0.6271 | 0.837 ± 0.0071
x1 = 0.7214 | 0.8324 ± 0.0071
x1 = 0.842 | 0.8315 ± 0.0071
x1 = 0.9127 | 0.8331 ± 0.0071
x1 = 0.9559 | 0.8373 ± 0.0071

Cc1ccnc(C)c1 + C1CCCCC1
viscosity [mPa·s], 101 kPa
Conditions | x1 = 0.1087 | x1 = 0.208 | x1 = 0.3004 | x1 = 0.407 | x1 = 0.507 | x1 = 0.6004 | x1 = 0.6977 | x1 = 0.8002 | x1 = 0.9019
303 K | 0.7378 ± 0.0052 | 0.6882 ± 0.005 | 0.6701 ± 0.0049 | 0.6574 ± 0.0049 | 0.6585 ± 0.005 | 0.6674 ± 0.0051 | 0.6805 ± 0.0053 | 0.7102 ± 0.0056 | 0.7412 ± 0.0059
313 K | 0.6355 ± 0.0046 | 0.6204 ± 0.0045 | 0.6004 ± 0.0045 | 0.5891 ± 0.0045 | 0.5844 ± 0.0045 | 0.6004 ± 0.0047 | 0.6055 ± 0.0048 | 0.6285 ± 0.005 | 0.6543 ± 0.0053
323 K | 0.5624 ± 0.0041 | 0.533 ± 0.004 | 0.5166 ± 0.0039 | 0.5092 ± 0.004 | 0.5073 ± 0.004 | 0.52 ± 0.0041 | 0.54 ± 0.0043 | 0.5502 ± 0.0045 | 0.583 ± 0.0048
